One molecule from patent US5428031A, “Methods of treating cardiac arrhythmia” (priority 1993, dated 1995) can be followed below.

Data set [1] relates to guinea pig ventricular myocytes. The data set can be described thus: current-clamp action potential duration (APD90) in isolated myocytes, 0.2 Hz. The class given is cell-based. As to conditions: Cavia porcellus, Ventricular myocyte, 4 cells. Here is the method:
(§1) Guinea pig ventricular myocytes were isolated using a modification of the procedure described by Mitra R and Morad M., "A Uniform Enzymatic Method for Dissociation of Myocytes from Hearts and Stomachs of Nertilorates", Am. J. Physiol. 249:H1056-60 (1985). Excised hearts were perfused through the aorta (retrograde fashion) at a rate of 10 ml/min with oxygenated, warmed (37° C.) solutions described below. The heart was initially perfused for 7 minutes with a Tyrode's solution containing, in mM: 132 NaCl, 4 KCl, 1.2 MgCl2, 10 HEPES (formal name N-2-Hydroxyethylpiperazine-N-2-ethanesulfonic acid), 5 glucose, pH=7.2. The head was then perfused with the same nominally Ca^2+ -free solution containing 150 units/ml Type II collagenase (Worthington) and 0.5 units/ml Type XIV protease (Sigma) for 8 minutes. This perfusate was followed by a Tyrode's solution containing 0.2 mM CaCl2 (without enzymes) for 5 minutes. The digested ventricles were cut into small pieces and gently shaken until cells were visibly dispersed. […]
(§2) The suction microelectrode technique described by Giles, W. R. and Shibata, E. F., "Voltage clamp of bull-frog cardiac pacemaker cells: a quantitative, analysis of potassium currents". […]
To record action potentials, single cells were bathed in 1.8 mM Ca^2+ -Tyrode's solution. […] Data were analyzed as percent (%) change in action potential duration at 90% of repolarization (APD90). […]

For data set [2], the system named is conscious dogs. Nature of the data set: electrocardiographic QT interval in conscious dogs, oral. The class given is in vivo, dog. Here is the method: Trained, female mongrel dogs, in the weight range of 8 to 16 kg and instruimented with chronic arterial access ports, were deprived of food 18 to 24 hours prior to the study. At test time, the dog was placed in an Alice King Chatham nylon mesh sling for light restraint. Four Grass Instrument Co. Type E2 Platinum Subdermal Electrodes were affixed to the limbs of the dog and connected to a Hewlett-Packard 4700A Cardiograph multi-lead electrocardiogram (ECG) recorder. After approximately a 30-minute stabilization period, one or two pretreatment Lead II ECG tracings were taken over approximately a 30-second interval. Dogs were then dosed via gavage with labrafil (vehicle) or test compound. The volume, administered was 2.0 ml/kg followed by a 15 ml tap-water flush. Lead II ECG recordings were obtained at 15, 30, and 60 minutes and every 30 minutes thereafter for five hours post-drug administration. Dogs were also monitored for blood pressure changes via a Modular Instruments data acquisition system and transducer connected to the arterial access port. Final ECG traces were taken at approximately 24 hours post-treatment. Average QT interval lengths were determined for each time point and QTc values were calculated to correct for variations in heart rate (QTc =QT/√R-R).

For data set [3], the system named is IK1 (inward rectifier K+ current). The data set can be described thus: voltage clamp measurement of IK1 block in isolated guinea pig ventricular myocytes. It is filed as cell-based. As to conditions: 1 μM. Here is the method: as §1, §2
To record K^+ currents, the cells were bathed in a Ca^2+ -free Tyrode's :solution containing […] nisoldipine. […] Data was analyzed as % block from control membrane currents. […]

`Cc1cccc(NC(=O)N[C@@H]2N=C(c3ccccc3)c3ccccc3N(C)C2=O)c1` [Compound 4, (R)-N-(2,3-dihydro-1-methyl-2-oxo-5-phenyl-1H-1,4-benzodiazepin-3-yl)-N'-(3-methylphenyl)urea]: the percent increase in APD90 at 5 µM in data set [1] turned out to be 202%. In data set [2], the “other ECG or cardiovascular effects” value is reported as “no other ECG or cardiovascular effects” and the “prolongation of ECG QT interval” value was “dose-related prolongation of ECG QT interval”. Also, the “effect on IK1” value in data set [3] is recorded as “Little or no effect”.
